Reference: patent publication US20190314311A1, “PHARMACEUTICAL COMPOSITION” (JAPAN SCIENCE AND TECHNOLOGY AGENCY, priority 2016, published 2019)

Key:
[1] = test system: Thio-Q62 protein; assay: protein aggregation turbidity assay; assay type: biochemical; settings: 8.2 μM Thio-Q62, 600 mM arginine, PBS, 37° C., neutral pH, 5 days
Method: In the subsequent experiments, the protein aggregation turbidity assay was performed by the method described in Non-Patent Document 6. Specifically, it was performed as follows.
(§1) A solution in which abnormally expanded proteins were dissolved in physiological saline phosphate (PBS) was used as a measurement sample. The solution was incubated at 37° C., and turbidity at 405 nm was measured every 24 hours using a microplate reader “Spectramax Plus plate reader” (Molecular Devices Inc.).
As an abnormally expanded PolyQ protein, a Thioredoxin-Q62 (Thio-Q62) fusion protein consisting of Thioredoxin and a PolyQ stretch with 62 glutamines was used.
As a control, Thio-Q62 protein alone was incubated in the same manner, and the turbidity was measured every 24 hours.
As controls, a solution containing Thio-Q62 protein alone, and a solution containing Thio-Q62 protein and 400 mM proline were incubated in the same manner, respectively, and turbidity was measured after 5 days. […] The relative turbidity (%) of each solution was measured. The turbidity of the solution containing Thio-Q62 protein alone was set to 100%. In the figure, values represent means±SEM (n=3). “*” represents p<0.05, “***” represents p<0.001, “n.s.” represents not significant.

[2] = test system: Thio-Q62 protein; assay: seed-induced polyQ aggregation reaction (turbidity); assay type: biochemical; settings: 10 μM Thio-Q62 + seeds, 400 mM arginine or proline, 37° C., 7 days
Method: as §1

[3] = test system: Thio-Q62 protein; assay: native PAGE of β-sheet conformational transition; assay type: biochemical; settings: 8.2 μM Thio-Q62, 600 mM arginine, PBS pH 7.5, 37° C., five days
Description: The separated proteins were stained with Coomassie brilliant blue (CBB).

[4] = test system: COS-7 cells expressing Q45-GFP; assay: FCS analysis of polyQ oligomer formation in cell lysates; assay type: cell-based; settings: 25 mM arginine, lysed 48 hours after transfection
Method: For polyQ oligomer formation, the fluorescent protein GFP fused with a protein having a PolyQ repeat consisting of 45 glutamines (Q45-GFP) was used as the monomer. Two indices obtained from FCS measurement were used to assess the property of polyQ oligomers; counts per particle (CPP) and the diffusion time of the fast components (DT1) (Non-Patent Document 11). […] DT1 reflects the size of the Q45-GFP oligomers.
FCS analysis was performed by the method described in Non-Patent Document 11. […] The cell lysates were gently sonicated and centrifuged to remove insoluble Q45-GFP inclusion bodies. The resulting supernatants containing no visible inclusion bodies were subjected to FCS measurements. From the measurements, the diffusion time, which corresponds to the average time for diffusion of fluorescent particles across the detection area and CPP, which directly reflects the number of fluorescent molecules per particle, were calculated.

[5] = test system: Q40-GFP expressing nematode line; assay: SDD-AGE of polyQ oligomers in nematode lysates; assay type: in vivo, Caenorhabditis elegans; settings: 10 mM arginine
Method: SDD-AGE was performed as follows. First, nematodes were lysed in lysis buffer (0.5% SDS, 0.5% NP-40, 50 mM Tris-HCl, 150 mM NaCl, 5 mM EDTA, protease inhibitor cocktail), the resulting lysate was run on a 1% agarose gel with 0.01% SDS in a running buffer of Tris-Glycine containing 0.01% SDS, and then transferred overnight onto a nitrocellulose membrane. For subsequent western blot analysis, the membrane was incubated with the anti-GFP antibody (MBL Life sciences) at 10,000 dilution as the primary antibody at 4° C. overnight, and then with the HRP-conjugated anti-rabbit IgG antibody (MBL Life sciences) at 20,000 dilution as the secondary antibody. Immunoblots were imaged using the Lumino image analyzer system “ImageQuant LAS 4000” (GE Healthcare Life Sciences) and analyzed using “ImageQuantTL” (GE Healthcare Life Sciences).

[6] = test system: SCA1 mice; assay: balance beam test; assay type: in vivo, mouse; settings: 6% arginine in drinking water from 3 weeks; 28 weeks of age; vs untreated SCA1 mice
Method: SCA1 mice were also examined using the balance beam test to assess the motor coordination. For balance beam analysis, mice were assessed on their time to cross a beam with 1 m-long and 15 mm-diameter. The beam was placed approximately 50 cm above the ground with a bright light at the starting end and a dark box at the far end. Mice were initially trained for 3 consecutive days, 2 trials each, so that they learn to cross the beam without falling or turning around. On testing days, the time it took the mice to cross the beam was recorded. If the mice took longer than 60 seconds to cross, the score was counted as 60 seconds. Two trials were performed for each mouse, and a faster time was used for analysis.

[7] = test system: SBMA mice; assay: horizontal open-field activity and rearing behavior; assay type: in vivo, mouse; settings: 6% arginine in drinking water from 3 weeks; 12 weeks of age
Description: As another PolyQ disease mouse model, the SBMA mouse (Non-Patent Document 18) was used. […] This motor dysfunction can be reversed with drug treatment (Non-Patent Document 19). The SBMA mouse used in this experiment was a kind gift from Dr. Gen Sobue (Nagoya University, Japan).
The motor dysfunction of the SBMA mouse can be monitored as spontaneous motor dysfunction, by measuring horizontal open-field activity and rearing behavior in the cage (Non-Patent Document 18). […] As a control, water without arginine was given to SBMA mice as drinking water (arginine untreated).
Horizontal open-field activity and rearing behavior were measured using a spontaneous locomotor activity monitor “Supermex” (Muromachi Kikai) according to the method described in Non-Patent Document 18. Specifically, a mouse was placed in a measuring cage in which infrared beams were projected inside and were allowed to move around freely. When the mouse moves inside the measuring cage, the infrared beam is obstructed and the infrared ray cannot be detected by the light receiving part (beam break). The number of beam breaks per minute was determined by measuring the number of beam breaks (counts/min). To detect movements in the horizontal direction, the number of beam breaks of the infrared beams projected in the vertical direction were counted. […]

[8] = target: T1, amyloid-β (beta) 1-42 (Homo sapiens, UniProt P05067); settings: Non-Patent Document 2; cited from earlier work
T1 construct: amyloid-β (beta) 1-42

[9] = Non-Patent Document 5; cited from earlier work

T1 sequence (P05067 672-713 limits assumed): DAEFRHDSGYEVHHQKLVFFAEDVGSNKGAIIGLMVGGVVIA

With N=C(N)NCCC[C@H](N)C(=O)O [arginine] the “lag phase of turbidity time course” value [1] was “elongated the lag phase”, the “speed of aggregation (turbidity time course)” value [1] was “decreased the speed of aggregation” and the “seed-induced increase in turbidity” value [2] was “markedly decreased”. The “band of β-sheet-rich monomer (native PAGE, CBB)” value [3] was “did not appear even when incubated for a sufficient period of time”, the “counts per particle (CPP)” value [4] was “decreased compared to untreated cells” and the “diffusion time of the fast components (DT1)” value [4] was “decreased compared to untreated cells”. The “smear intensity by image analysis” value [5] was “became smaller”, the “smear of Q40-GFP oligomers (SDD-AGE image)” value [5] was “much lighter and less broad smear” and the “time to cross the balance beam” value [6] was “significantly less time”. For the same compound, the horizontal activity [7] was “improved to levels comparable to untreated wild type mice”, the rearing behavior [7] was “improved to levels comparable to untreated wild type mice” and the “aggregation of amyloid-β 1-42” value [8] was “prevents aggregation”. The “crossing of the blood brain barrier (BBB)” value [9] was “known to cross the blood brain barrier”.
